Data: paper PMC10111413 (ACS Infectious Diseases, 2023)

How the values were obtained:
Assay type in all cases: cell-based
A. baumannii BV95 = conditions: CLSI, cation-adjusted MHB, 18 h at 37 °C, three technical replicates
Procedure: (§1) VIII. Antimicrobial testing
(§2) Table S2. Minimum inhibitory concentrations (MICs) determined against panel of previously characterized colistin-resistant A. baumannii clinical isolates5
(§3) Strain Relacidine A (3a) Relacidine B (4a) Relacidamide (5) Colistin […]
(§4) aMIC values given in µg/ml.
(§5) All minimum inhibitory concentrations were determined according to Clinical and Standards Laboratory Institute (CLSI) guidelines. Blood agar plates were inoculated from glycerol stocks of the different A. baumannii strains used and then incubated for 16 h at 37 °C . Individually grown colonies were subsequently used to inoculate 5 mL aliquots of TSB that were then incubated at 37 °C. In parallel, the lipopeptide antibiotics DMSO stocks to be assessed were serially diluted with cation-adjusted MHB in polypropylene 96-well plates (50 µL in each well). Colistin sulfate stocks were dissolved in water before being diluted with cation-adjusted MHB. The A. baumannii inoculated TSB aliquots were incubated until an OD600 of around 0.5 was reached. The bacterial suspensions were then diluted with cation-adjusted MHB (2 x 10^5 CFU mL-1) and added to the microplates containing the test compounds (50 µL to each well). The well-plates were sealed with an adhesive membrane and after 18 h of incubation at 37 °C visually inspected for bacterial growth. MIC values reported are based on three technical replicates and defined as the lowest concentration of the compound that prevented visible

A. baumannii NCTC 13304 = conditions: CLSI, cation-adjusted MHB, 18 h at 37 °C, three technical replicates
Procedure: as §1, §2, §3, §4, §5

A. baumannii BV94 = conditions: colistin-resistant clinical isolate; CLSI, cation-adjusted MHB, 18 h at 37 °C, three technical replicates
Procedure: as §1, §2, §3, §4, §5

A. baumannii LAC-4 = conditions: CLSI, cation-adjusted MHB, 18 h at 37 °C, three technical replicates
Procedure: as §1, §2, §3, §4, §5

A. baumannii BV173 = conditions: CLSI, cation-adjusted MHB, 18 h at 37 °C, three technical replicates
Procedure: as §1, §2, §3, §4, §5

A. baumannii BV172 = conditions: CLSI, cation-adjusted MHB, 18 h at 37 °C, three technical replicates
Procedure: as §1, §2, §3, §4, §5

A. baumannii ATCC 17978 = conditions: CLSI, cation-adjusted MHB, 18 h at 37 °C, three technical replicates
Procedure: as §1, §2, §3, §4, §5

A. baumannii HUMC1 = conditions: CLSI, cation-adjusted MHB, 18 h at 37 °C, three technical replicates
Procedure: as §1, §2, §3, §4, §5

A. baumannii NCTC 13420 = conditions: CLSI, cation-adjusted MHB, 18 h at 37 °C, three technical replicates
Procedure: as §1, §2, §3, §4, §5

sheep red blood cells = assay: Hemolytic assay; conditions: 128 μg/mL, 1 h at 37 °C, sheep red blood cells in PBS with 0.002% Tween20, read-out 415 nm, relative to 0.1% Triton X-100, triplicate
Procedure: Figure S2. Hemolytic activity of compounds 3a-5 at 128 µg/mL and 1 h incubation against sheep red […]
under the same conditions.
Experiments were performed in triplicate and Triton X-100 used as a positive control. Red blood cells from defibrinated sheep blood obtained from Thermo Fisher were centrifuged (400 g for 15 min at 4°C) and washed with Phosphate-Buffered Saline (PBS) containing 0.002% Tween20 (buffer) five times. Then, the red blood cells were normalized to obtain a positive control read-out between 2.5 and 3.0 at 415 nm to stay within the linear range with the maximum sensitivity. A serial dilution of the compounds (128 – 1 µg/mL, 75 µL) was prepared in a 96-well polypropylene plate. The outer border of the plate was filled with 75 µL buffer. Each plate contained a positive control (0.1% Triton-X final concentration, 75 µL) and a negative control (buffer, 75 µL) in triplicate. The normalized blood cells (75 µL) were added and the plates were incubated at 37 °C for 1 h while shaking at 500 rpm. A flat - bottom polystyrene plate with 100 µL buffer in each well was prepared. […] The values obtained from a read-out at 415 nm were corrected for background (negative control) and transformed to a percentage relative to the positive […]

Substance: colistin [reference compound]
- MIC A. baumannii BV95 (A. baumannii BV95): 32 µg/mL
- MIC A. baumannii NCTC 13304 (A. baumannii NCTC 13304): 1 µg/mL
- MIC A. baumannii BV94 (A. baumannii BV94): > 64 µg/mL
- MIC A. baumannii LAC-4 (A. baumannii LAC-4): 0.5 µg/mL
- MIC A. baumannii BV173 (A. baumannii BV173): 16 µg/mL
- MIC A. baumannii BV172 (A. baumannii BV172): > 64 µg/mL
- MIC A. baumannii ATCC 17978 (A. baumannii ATCC 17978): 1 µg/mL
- MIC A. baumannii HUMC1 (A. baumannii HUMC1): 1 µg/mL
- MIC A. baumannii NCTC 13420 (A. baumannii NCTC 13420): 0.5 µg/mL
- hemolysis (sheep red blood cells): < 0.1%
